Consider 29 molecules from patent US7972829B2, “Process for producing transglutaminase” (Ajinomoto Co., Inc., priority 1999, dated 2011).

“Also recorded” adds a separate entry of the source. Like-named read-outs stand apart in the source and are kept apart here. *1 amine or outer side, *2 acyl side, *3 side chain or, on linkers, in order; H or OH if unused. Where a SMILES comes first, the peptide text is derived from it. Primed or numbered codes have the meaning given here. Where no end group is shown, it is not given here. [ ]: non-standard residue; d: D form. The star is where a group is joined. Sta = CC(C)C[C@H](N)[C@@H](O)CC(=O)O; pNA = O=[N+]([O-])c1ccc(N*)cc1; Suc = O=C(CCC(=O)[*:2])[*:1]; Isovaleryl = CC(C)CC(=O)*; code Z = not defined here; βNA = c1ccc2cc(N*)ccc2c1; Bz′ = not defined here; Cbz = O=C(OCc1ccccc1)*

Data set [1] deals with proline specific peptidase (svPEP). Briefly: Effects of inhibitors on the activity of proline specific peptidase (svPEP), Ala-Ala-Pro-pNA as substrate. In kind it is biochemical, S. mobaraense IFO13819. To be noted: for inhibition of svPEP activity (in words): Ala-Ala-Pro-pNA as substrate.
Data set [2] shares this test system. Briefly: Substrate specificity of svPEP (cleaving activity on pNA-, βNA-conjugated peptides and peptides). Format: biochemical, S. mobaraense IFO13819. To be noted: for relative activity (specificity of svPEP for peptide substrate): 20 mM sodium phosphate buffer pH 6.5, 37° C., 5 min, AAP-pNA = 100; for substrate recognition by svPEP (in words): cleavage at carboxyl terminal side of proline residue.

A short description of data set [3]: Transglutaminase activity by hydroxamate method. In kind it is biochemical.
Data set [4] can be described thus: Isoelectric point of svPEP. In kind it is physicochemical.
The nature of data set [5]: Enzyme properties of svPEP (optimum pH, pH stability, optimum temperature, temperature stability). Format: biochemical. The protocol:
were used as a buffer, respectively. The enzyme was allowed to act on Ala-Ala-Pro-pNA as the substrate at 30° C. for 5 minutes. Relative activity of the enzyme in each buffer was calculated compared to the activity in 20 mM sodium phosphate buffer, pH6.5 as 100%. […] (iii) pH Stability
0.15 M GTA buffers (buffers composed of 3,3-dimethylglutaric acid, tris(hydroxymethyl)aminomethane, 2-amino-2-methyl-1,3-propanediol) ranging between pH 3 and pH10 were used. To 20 µl of purified enzyme solution, 40 μl of the buffer at each pH was added and the reaction mixtures were allowed to stand overnight at 4° C., then adjusted to pH 7.0 and the volume was made up to 120 μl. To 50 μl aliquots, Ala-Ala-Pro-pNA was added and the reaction was performed at 30° C. for 5 minutes. Relative amounts of substrate which the enzyme decomposed at each pH were considered to be the remaining activity compared to the activity of the enzyme as 100% when the enzyme was stored under the same condition as described above except for pH 7.0.
To 50 μl of purified enzyme solution, 0.5 ml of 20 mM sodium phosphate buffer (pH 6.5) was added and Ala-Ala-Pro-pNA was added up to 0.25 mM and the mixture was maintained at 20° C.-60° C. for 5 minutes to effect decomposition reaction. Relative amount of substrate which the enzyme decomposed was considered to be the relative activity at each temperature, compared to the amount of substrate decomposition at 25° C. as 100% activity.
To 50 μl of purified enzyme solution, 0.5 ml of 20 mM sodium phosphate buffer (pH 6.5) was added. The mixture was maintained at 4° C. or 20° C.-60° C. for 15 minutes and then cooled on ice. Ala-Ala-Pro-pNA was added up to 0.25 mM and the mixture was maintained at 30° C. for 5 minutes. The remaining activity was calculated assuming the activity of the enzyme which was treated at 4° C. to be 100%.

The mark [6] stands for this setting: compound 1 mM, 10 min room temperature, then Ala-Ala-Pro-pNA, 30° C., 5 min, activity without compound = 100%.
Where [7] appears, read: compound 10 mM, 10 min room temperature, then Ala-Ala-Pro-pNA, 30° C., 5 min, activity without compound = 100%.

`O=C(O)c1cc[c]([Hg][Cl])cc1` [p-Chloromercuribenzoic acid]: the “inhibition of svPEP activity (in words)” value in data set [1] is reported as “inhibited to some extent”. Further, the relative activity in data set [1] (setting [6]) was determined as 87.1%. In the case of “Bz-Phe-Val-Arg-pNA ({Bz′}-Phe-Val-Arg-pNA) [Bz-FVR-pNA, p-nitroanilide peptide substrate]”, in data set [2], the “relative activity (specificity of svPEP for peptide substrate)” value was determined as 0.002%. Same read-out and setting: for “SFRAP-pNA [p-nitroanilide peptide substrate for svPEP]” the value was 1.23%.

As for `CC(C)C[C@H](NC(=O)[C@@H](O)[C@H](N)Cc1ccccc1)C(=O)O` [Bestatin], in data set [1] (setting [6]), the relative activity came out at 97.6%. “Z-AGP-βNA ({code Z}-Ala-Gly-Pro-βNA; reading uncertain; also: printed as Z-AGP-βNA) [β-naphtylamido peptide substrate for svPEP]”: the “relative activity (specificity of svPEP for peptide substrate)” value in data set [2] is listed as 0.78%. Consider “Ala-Ala-Pro-pNA [AAP-pNA, p-nitroanilide peptide substrate for svPEP]”, for which, in data set [2], the “relative activity (specificity of svPEP for peptide substrate)” value was found to be 100% and the “substrate recognition by svPEP (in words)” value (“substrate recognition” below) was “preferably recognized”. On to `O=C(O)CN(CCN(CC(=O)O)CC(=O)O)CC(=O)O` [EDTA], for which the relative activity in data set [1] (setting [7]) was 105.2%. As for `O=C[C@@H]1CCCN1C(=O)[C@@H]1CCCN1C(=O)OCc1ccccc1` [Z-Pro-(S)Prolinal] (Cbz-Pro-Pro-aldehyde), the relative activity in data set [1] (setting [6]) was 105.8%. On to Phe-Arg-Ala-Pro-pNA (FRAP-pNA), for which, in data set [2], the “relative activity (specificity of svPEP for peptide substrate)” value is 49.0% and the “substrate recognition” value is given as “preferably recognized”. As for `CC(C)C[C@H](NC(=O)[C@@H](NC(=O)N[C@@H](Cc1ccccc1)C(=O)O)[C@@H]1CCN=C(N)N1)C(=O)N[C@H](C=O)Cc1ccccc1` [Chymostatin], the relative activity in data set [1] amounted to 84.9%. Consider `O=C[C@@H]1CCCN1C(=O)[C@@H]1CCCN1C(=O)OCc1ccccc1` [Z-Pro-Prolinal] (Cbz-Pro-Pro-aldehyde), for which, in data set [1] (setting [6]), the relative activity was found to be 99.7%. As for `CCN1C(=O)C=CC1=O` [N-Ethylmaleimide], the relative activity in data set [1] (setting [6]) came out at 98.3%.

As to `NC(=O)CI` [Iodoacetamide], the relative activity in data set [1] stood at 87%. Take `CC(C)CC(=O)N[C@H](C(=O)N[C@H](C(=O)N[C@@H](CC(C)C)[C@@H](O)CC(=O)N[C@@H](C)C(=O)N[C@@H](CC(C)C)[C@@H](O)CC(=O)O)C(C)C)C(C)C` [Pepstatin] (Isovaleryl-VV[Sta]A[Sta]-OH): in data set [1] (setting [6]), the relative activity is recorded as 165.7%.

In the case of `O=S(=O)(F)Cc1ccccc1` [Phenylmethylsulfonylfluoride], the results for the “inhibition of svPEP activity (in words)” value in data set [1] (listed as phenyl methylsulfonylfluoride) and in data set [1] (listed as phenylmethylsulfonyl fluoride) were “comparatively strong inhibition” and “inhibited”, respectively. Besides, the relative activity in data set [1] (setting [6]) was determined as 39.7%.

Consider “Aminoethylbenzenesulfonylfluoride hydrochloride”, for which the “inhibition of svPEP activity (in words)” value in data set [1] (hydrochloride) is on record as “comparatively strong inhibition; also recorded: inhibited”. Moreover, in data set [1] (compound 4 mM, 10 min room temperature, then Ala-Ala-Pro-pNA, 30° C., 5 min, activity without compound = 100%), the relative activity was 59.9%. `O=C[C@@H]1CCCN1C(=O)[C@@H]1CCCN1C(=O)OCc1ccccc1` [Z-(S)Pro-(S)Prolinal] (Cbz-Pro-Pro-aldehyde): the relative activity in data set [1] (setting [6]) worked out at 111.2%. Take AAA-pNA: in data set [2], the “relative activity (specificity of svPEP for peptide substrate)” value came out at 8.5%.

Regarding “AAF-pNA (Ala-Ala-Phe-pNA) [p-nitroanilide peptide substrate for svPEP]”, in data set [2], the “relative activity (specificity of svPEP for peptide substrate)” value was 4.1%. Same read-out and setting: for p-pNA the value was 0.04%; for “AAPL-pNA [p-nitroanilide peptide substrate for svPEP]”, 0.3%. In the case of “Ala-Phe-Pro-pNA [AFP-pNA, p-nitroanilide peptide substrate for svPEP]”, in data set [2], the “relative activity (specificity of svPEP for peptide substrate)” value was found to be 26.3% and the “substrate recognition” value was “preferably recognized”. Turning to `O[C@H](CS)[C@H](O)CS` (racemic) [Dithiothreitol], the relative activity in data set [1] (setting [7]) is reported as 102.5%. For the molecule “Z-GAP-βNA ({code Z}-Gly-Ala-Pro-βNA; reading uncertain; also: printed as Z-GAP-βNA) [β-naphtylamido peptide substrate for svPEP]”, the “relative activity (specificity of svPEP for peptide substrate)” value in data set [2] is listed as 1.2%.

“PSFRAP-pNA [p-nitroanilide peptide substrate for svPEP]”: the “relative activity (specificity of svPEP for peptide substrate)” value in data set [2] came out at 0.2%. On the same count and under the same terms, for “Suc-AAPF-pNA [p-nitroanilide peptide substrate for svPEP]” the value was 0.01%. In the case of `c1cnc2c(c1)ccc1cccnc12` [1,10-Phenanthroline], in data set [1] (setting [6]), the relative activity came to 92.5%.

B1: transglutaminase: S. mobaraense transglutaminase secreto-produced as pro-form in C. glutamicum ATCC13869, pro-structure part cleaved by protease (protein)
chain: DSDDRVTPPAEPLDRMPDPYRPSYGRAETVVNNYIRKWQQVYSHRDGRKQQMTEEQREWLSYGCVGVTWVNSGQYPTNRLAFASFDEDRFKNELKNGRPRSGETRAEFEGRVAKESFDEEKGFQRAREVASVMNRALENAHDESAYLDNLKKELANGNDALRNEDARSPFYSALRNTPSFKERNGGNHDPSRMKAVIYSKHFWSGQDRSSSADKRKYGDPDAFRPAPGTGLVDMSRDRNIPRSPTSPGEGFVNFDYGWFGAQTEADADKTVWTHGNHYHAPNGSLGAMHVYESKFRNWSEGYSDFDRGAYVITFIPKSWNTAPDKVKQGWP
modifications: Streptoverticillium mobaraense
notes: S. mobaraense transglutaminase secreto-produced as pro-form in C. glutamicum ATCC13869, pro-structure part cleaved by protease
B1: the specific activity result in data set [3] (after Dispase digestion (37° C., pH 7.5, 1 hour) of culture supernatant of C. glutamicum ATCC13869 harboring pVKPTG1-4 or pPKPTG1-4) is reported as “about 20 U/mg”; in data set [3] (after Dispase digestion (37° C., pH 7.5, 1 hour) of culture supernatant of C. glutamicum harboring pVKSPTG1, pVTSPTG1, pPKSPTG1 or pPTSPTG1), “about 20 U/mg”; in data set [3] (culture supernatant of C. glutamicum harboring pVSS1 (SAMP45) and pPKSPTG1, Phe-Arg-Ala-Pro added at N-terminal) it was “about 20 U/mg”; in data set [3] (culture supernatant of C. glutamicum harboring pVSS1 and pPKSPTG11 or pPKSPTG12) it was “about 20 U/mg”; in data set [3] (culture supernatant of C. glutamicum harboring pVSSSP1 (SAMP45 and svPEP) and pPKSPTG1), “about 20 U/mg”; in data set [3] (pro-structure cleaved with culture medium of S. mobaraense IFO13819, 30° C., 6 hours), “about 20 U/mg”. The specific activity result in data set [3] (pro-structure cleaved with washed cells of S. mobaraense, 30° C., 6 hours) was “about 20 U/mg”.

B2: svPEP: proline-specific peptidase produced by S. mobaraense IFO13819; mature sequence SEQ ID NO:40 (protein)
chain: QADIKDRILKIPGMKFVEEKPYQGYRYLVMTYRQPVDHRNPGKGTFEQRFTLLHKDTDRPTVFFTSGYNVSTNPSRSEPTRIVDGNQVSMEYRFFTPSRPQPADWSKLDIWQAASDQHRLYQALKPVYGKNWLATGGSKGGMTATYFRRFYPNDMNGTVAYVAPNDVNDKEDSAYDKFFQNVGDKACRTQLNSVQREALVRRDEIVARYEKWAKENGKTFKVVGSADKAYENVVLDLVWSFWQYHLQSDCASVPATKASTDELYKFIDDISGFDGYTDQGLERFTPYYYQAGTQLGAPTVKNPHLKGVLRYPGINQPRSYVPRDIPMTFRPGAMADVDRWVREDSRNMLFVYGQNDPWSGEPFRLGKGAAARHDYRFYAPGGNHGSNIAQLVADERAKATAEVLKWAGVAPQAVQKDEKAAKPLAPFDAKLDRVKNDKQSALRP
modifications: Streptoverticillium mobaraense
For the molecule B2, the isoelectric point in data set [4] turned out to be 10.2. The “optimum pH” value in data set [5] (Ala-Ala-Pro-pNA, 30° C., 5 min) is 6.0-6.5. Besides, in data set [5] (overnight at 4° C. in 0.15 M GTA buffers pH 3 to 10), the “pH stability (stable at pH)” value was 4-9. Besides, the optimum temperature in data set [5] (pH 6.5, 20° C.-60° C., 5 min) is 25-30 °C. Also, the “temperature stability (stable below)” value in data set [5] (pH 6.5, 15 min at 4° C. or 20° C.-60° C.) was “below 20 °C”.
